Test results as given in patent US20260013502A1, “METHOD FOR TERMINATING COVER CROP GROWTH” (SUMITOMO CHEMICAL COMPANY, LIMITED, priority 2022, published 2026).
Several values for one entry are separate records, joined by “and”; a condition that tells them apart may be missing. Equal values may be shown once. Where a name gives a salt, the structure may show the parent alone.

Columns and labels:
[1] = system: cereal rye (Secale cereale); assay: Example 7: greenhouse pot test, foliar application, termination of cereal rye growth; format: in vivo; details: for Dry matter weight: cereal rye above-ground parts at growth termination, average of 3 pots
Protocol: (§1) A plastic pot was filled with soil, and cereal rye (Secale cereale) was seeded and grown in a greenhouse. Fifteen days after seeding, RoundupPowerMax was diluted with water, and then the cereal rye was subjected to foliar application from above using an automatic sprayer at a spray volume of 200 L/ha to achieve an application rate of 1,543 g/ha as glyphosate-potassium salt.
(§2) At the same time, the cereal rye was similarly seeded in another plastic pot and grown. Twenty-one days after seeding, epyrifenacil emulsifiable concentrate (55 g/L) or saflufenacil suspension (341 g/L) was diluted with water containing 1% (v/v) adjuvant Agri-Dex, and then the cereal rye was subjected to foliar application from above using an automatic sprayer at a spray volume of 200 L/ha to achieve an application rate of 25 g/ha.
(§3) After application with the herbicide, the cereal rye was grown in a greenhouse, and in case the growth was terminated, the above-ground parts were harvested at termination of the growth and the dry matter weight was measured. In this test, the growth was judged to be terminated when death of terminal and lateral buds was visually confirmed. The date at the beginning of the onset of effect, the growth termination date, and the dry matter weight at the time of growth termination are shown in Table 1. The onset of the effect was judged by visually observing the change in leaf color. Application with each herbicide was performed using three pots. The date at the beginning of the onset of effect and the growth termination date in the table were dates on which the onset of effect and growth termination were confirmed in all three pots, respectively. The dry matter weight was the average of the three pots.

[2] = system: cereal rye (Secale cereale); assay: Example 9: outdoor pot test, foliar application, termination of cereal rye growth; format: in vivo; details: glyphosate-potassium salt 1,543 g/ha; for Incremental dry matter weight: cereal rye above-ground parts, average dry matter weight at growth termination minus average untreated dry matter weight 24 days after seeding (7 pots), epyrifenacil 20 g/ha; for Growth termination date / Date at the beginning of the onset of effect: cereal rye, outdoors, applied 24 days after seeding, epyrifenacil/saflufenacil 20 g/ha; for Growth termination date: death of terminal and lateral buds in all 7 pots; for Date at the beginning of the onset of effect: visual change in leaf color in all 7 pots, day relative to application
Protocol: as §1, with “outdoors. Twenty-four” for “in a greenhouse. Fifteen”
as §2, with “Twenty-four” for “Twenty-one”, “20” for “25”
At the same time, the cereal rye was similarly seeded in another plastic pot and grown. Twenty-four days after seeding, the above-ground parts were harvested and the dry matter weight (hereinafter referred to as untreated dry matter weight) was measured.
(§4) The cereal rye applied with the herbicide was grown outdoors after application with the herbicide, and in case the growth was terminated, the above-ground parts were harvested at termination of the growth and the dry matter weight was measured. In this test, the growth was judged to be terminated when death of terminal and lateral buds was visually confirmed. The date at the beginning of the onset of effect, the growth termination date, and the dry matter weight at the time of growth termination are shown in Table 3. The onset of the effect was judged by visually observing the change in leaf color. Application with each herbicide was performed using seven pots. The date at the beginning of the onset of effect and the growth termination date in the table were dates on which the onset of effect and growth termination were confirmed in all seven pots, respectively. The incremental dry matter weight was the value calculated by the following formula (1).
(§5) Incremental dry matter weight=average dry matter weight at the time of growth termination−average untreated dry matter weight 24 days after seeding Formula (1): • Average dry matter weight at the time of growth termination: average value of dry matter weights of 7 pots at the time of growth termination • Average untreated dry matter weight 24 days after seeding: average value of untreated dry matter weights of 7 pots

[3] = system: edible radish (Daikon Radish); assay: Example 10: outdoor pot test, foliar application, termination of radish growth; format: in vivo, Raphanus sativus; details: outdoors, applied 24 days after seeding, epyrifenacil 20 g/ha, glyphosate-potassium salt 1,543 g/ha; for Growth termination date: death of terminal and lateral buds in all 7 pots; for Date at the beginning of the onset of effect: visual change in leaf color in all 7 pots, day relative to application
Protocol: as §1, with “edible radish (Daikon Radish)” for “cereal rye (Secale cereale)”, “outdoors. Twenty-four” for “in a greenhouse. Fifteen”, “radish” for “cereal rye”, “1, 543” for “1,543”
as §2, with “radish” for “cereal rye”, “Twenty-four” for “Twenty-one”, “g/L)” for “g/L) or saflufenacil suspension (341 g/L)”, “[…]” for “1%”, “20” for “25”
At the same time, the radish was similarly seeded in another plastic pot and grown. Twenty-four days after seeding, the entire plant was dug up and the dry matter weight (hereinafter referred to as untreated dry matter weight) was measured.
as §4, with “radish” for “cereal rye”, “entire plant was dug up” for “above-ground parts were harvested”, “4.” for “3.”, “(2).” for “(1).”
as §5, with “(2):” for “(1):”

[4] = system: edible radish (Daikon Radish); assay: Example 8: greenhouse pot test, foliar application, termination of radish growth; format: in vivo, Raphanus sativus; details: for Dry matter weight: radish entire plant at growth termination, average of 3 pots; for Growth termination date / Date at the beginning of the onset of effect: epyrifenacil 25 g/ha applied 21 days after seeding, glyphosate-potassium salt 1,543 g/ha applied 15 days after seeding; for Date at the beginning of the onset of effect: visual change in leaf color in all 3 pots, day relative to application
Protocol: as §1, with “edible radish (Daikon Radish)” for “cereal rye (Secale cereale)”, “radish” for “cereal rye”
as §2, with “radish” for “cereal rye”, “g/L)” for “g/L) or saflufenacil suspension (341 g/L)”
as §3, with “radish” for “cereal rye”, “entire plant was dug up” for “above-ground parts were harvested”, “2.” for “1.”

[5] = system: cereal rye (Secale cereale); assay: Example 1: outdoor boom-sprayer foliar application to overwintered cereal rye at heading stage; format: in vivo; details: 40 g/ha epyrifenacil, EC 55 g/L, 0.5% MSO + 1% ammonium sulfate, 189 L/ha
Protocol: At the heading stage of cereal rye (Secale cereale) seeded in the autumn and overwintered outdoors after corn cultivation, epyrifenacil emulsifiable concentrate (55 g/L) was diluted with water containing 0.5% (v/v) adjuvant MSO+1% (w/v) ammonium sulfate, and the cereal rye is subjected to foliar application using a boom sprayer at a spray volume of 189 L/ha to deliver 40 g/ha of epyrifenacil.

radish (Tillage Radish) = assay: Example 2: outdoor boom-sprayer foliar application to overwintered radish at bolting stage; format: in vivo, Raphanus sativus; details: 20 g/ha epyrifenacil, EC 55 g/L, 0.5% Agri-Dex + 1% ammonium sulfate, 150 L/ha
Protocol: (§6) At the bolting stage of radish (Tillage Radish) seeded in the autumn and overwintered outdoors after soybean cultivation, epyrifenacil emulsifiable concentrate (55 g/L) was diluted with water containing 0.5% (v/v) adjuvant Agri-Dex+1% (w/v) ammonium sulfate, and the radish is subjected to foliar application using a boom sprayer at a spray volume of 150 L/ha to deliver 20 g/ha of epyrifenacil.

barley (Hordeum vulgare) = assay: Example 3: outdoor boom-sprayer foliar application to overwintered barley at internode elongation stage; format: in vivo; details: 30 g/ha epyrifenacil, EC 55 g/L, 0.5% Agri-Dex + 1% ammonium sulfate, 250 L/ha
Protocol: as §6, with “internode elongation” for “bolting”, “barley (Hordeum vulgare)” for “radish (Tillage Radish)”, “in a corn cultivation trace,” for “after soybean cultivation,”, “barley” for “radish”, “250” for “150”, “30” for “20”

[6] = epyrifenacil 25 g/ha, glyphosate-potassium salt 1,543 g/ha
[7] = cereal rye, greenhouse, death of terminal and lateral buds in all 3 pots, epyrifenacil/saflufenacil 25 g/ha applied 21 days after seeding, glyphosate-potassium salt 1,543 g/ha applied 15 days after seeding
[8] = listed as glyphosate-potassium salt
[9] = radish, greenhouse, death of terminal and lateral buds in all 3 pots
[10] = epyrifenacil 25 g/ha, glyphosate-potassium salt 1,543 g/ha, listed as epyrifenacil

SMILES | Dry matter weight [1, 6] | Growth termination date (days after application) ([1]; cereal rye, greenhouse, death of terminal and lateral buds in all 3 pots, epyrifenacil 25 g/ha, glyphosate-potassium salt 1,543 g/ha) | Growth termination date [1, 7] | Date at the beginning of the onset of effect ([1]; cereal rye, greenhouse, visual change in leaf color in all 3 pots, day relative to application, epyrifenacil/saflufenacil 25 g/ha applied 21 days after seeding, glyphosate-potassium salt 1,543 g/ha applied 15 days after seeding) | Incremental dry matter weight [2] [Kg/ha] | Incremental dry matter weight [2, 8] | Growth termination date [2] | Growth termination date [2, 8] [Days after application] | Date at the beginning of the onset of effect [2] | Growth termination date [3] | Date at the beginning of the onset of effect [3] | Dry matter weight [4, 6] [kg/ha] | Growth termination date [4, 9] | Growth termination date (days after application) ([4]; radish, greenhouse, death of terminal and lateral buds in all 3 pots, epyrifenacil 25 g/ha, glyphosate-potassium salt 1,543 g/ha) | Date at the beginning of the onset of effect ([4]; radish, greenhouse) | Dry matter weight [1, 10] | Death of the cereal rye observed [5] [days after application] | Death of the radish observed (radish (Tillage Radish)) [days after application] | Dry matter weight [4, 10] | Death of the barley observed (barley (Hordeum vulgare)) [days after application]
O=C(O)CNCP(=O)(O)O [Glyphosate-potassium salt, glyphosate-potassium salt] | 595 kg/ha | seeding (9 days after application | 24 Days Days after seeding | 5 Days after Days after application | −42 | reduced biomass | 21 Days Days after application | 21 | 7 Days after Days after application | failed to terminate the growth | 10 Days Days after application | 360 | 24 Days after Days after seeding | seeding (9 days after application | 7 Days after Days after application | – | – | – | – | –
CCOC(=O)COc1ncccc1Oc1cc(-n2c(=O)cc(C(F)(F)F)n(C)c2=O)c(F)cc1Cl [Epyrifenacil, epyrifenacil] | 1,118 kg/ha | – | 24 Days Days after seeding | – | – | – | 7 Days after application and 7 Days Days after application | – | Day after | 7 Days after application and 7 Days after Days after application | Day after | 905 | 24 Days after Days after seeding | – | On the day of | biomass was greater | 4 | 3 | biomass was greater | 4
CC(C)N(C)S(=O)(=O)NC(=O)c1cc(-n2c(=O)cc(C(F)(F)F)n(C)c2=O)c(F)cc1Cl [Saflufenacil, saflufenacil] | – | – | failed to terminate the growth | – | – | – | failed to terminate the growth | – | Day after | – | – | – | – | – | – | – | – | – | – | –
